Measurements: patent US20040171566A1, “Antisense modulation of p38 mitogen activated protein kinase expression” (priority 1999, published 2004)

Experiments:
Format in all cases: cell-based
p38α = p38α knock-down in mouse macrophage cell line RAW264.7, Western blotting
rat p38α mRNA = assay: Rat p38α mRNA levels in NR-8383 cells, quantitative real-time PCR; settings: 300 nM oligonucleotide with FuGENE 6, 24 hours, mRNA by quantitative real-time PCR, average of two experiments
mouse p38α mRNA = assay: Mouse p38α mRNA levels in bEND.3 cells, quantitative real-time PCR; parameters: % Inhib. mouse p38α: concentration or dose not given beside the values
Summary of the method: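 Mouse bEND.3 cells, antisense oligonucleotide-treated; p38α mRNA measured by one-step real-time RT-PCR (RT 30 min at 48 °C, then 40 cycles) with a FAM/TAMRA probe. Levels normalized to GAPDH or RiboGreen total RNA, and percent inhibition derived from standard curves of untreated-control mRNA.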

## ISIS 101757: antisense oligonucleotide targeted to mouse p38α, SEQ ID NO 177; 2′-MOE gapmer, all phosphorothioate linkages (antisense AGGTGCTCAGGACTCCATTT; all phosphorothioate, sugars by position and methylation of C not given here; 2'-MOE gapmer)
p38α
  p38α knock-down effect: confirmed
Rat p38α mRNA
  % Inhib. rat p38α: 53%
Mouse p38α mRNA; bEND.3 cells, mRNA by quantitative real-time PCR, average of two experiments
  % Inhib. mouse p38α: 88%
Mouse p38α mRNA; endothelial cells, read-out: IC50 for reducing p38α mRNA
  IC50: < 50 nM
